Reference: patent publication US20250313535A1, “ALPHA 4 BETA 7 INTEGRIN MODULATORS AND USES THEREOF” (DICE MOLECULES SV, INC., priority 2022, published 2025)
Where two headings read alike, the source gives them in different places.

Legend:
α4β7 integrin = α4β7 integrin (Homo sapiens (Human), UniProt P13612+P26010); experiment: Integrin Adhesion Assay: Protocol 4 (MAdCAM-coated plate, RPMI-8866 cells with stable LOF mutation of the ITGB1 gene); assay type: cell-based
How it was run: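 RPMI-8866 cells with CRISPR/Cas9 knockout of ITGB1 (2×10^6/mL) were added to MAdCAM-coated wells with compound (1% DMSO) in HEPES/NaCl buffer with 1 mM MnCl2, 0.1 mM CaCl2 and 1% BSA, then incubated 1 h at 37 °C. After four washes, adherent cells were quantified by CellTiter-Glo luminescence. Percent inhibition versus DMSO and control compound was fitted to 4-parameter curves.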

α4β1 integrin = α4β1 integrin (Homo sapiens (Human), UniProt P05556+P13612); experiment: Integrin Adhesion Assay: Protocol 5 (VCAM-coated plate, RPMI-8866 cells with stable LOF mutation of the ITGB7 gene); assay type: cell-based
How it was run: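 RPMI-8866 B cells with CRISPR/Cas9 ITGB7 knockout (clonal, verified by flow cytometry) adhered to VCAM-coated wells for 1 h at 37° C in HEPES/NaCl buffer with 1 mM MnCl2, 0.1 mM CaCl2, 1% BSA, 1% DMSO. Bound cells quantified by CellTiter-Glo luminescence after washing; % inhibition versus DMSO and control, 4-parameter fit.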

[1] = Protocol 4, RPMI-8866 cells with LOF mutation of ITGB1, MAdCAM, read-out: Mean IC50 α4β7 KO
[2] = Protocol 5, RPMI-8866 cells with LOF mutation of ITGB7, VCAM, read-out: Mean IC50 α4β1 KO
[3] = RPMI-8866 cells with stable LOF mutation of the ITGB1 gene, read-out: Mean IC50 α4β7 KO^a
[4] = RPMI-8866 cells with stable LOF mutation of the ITGB7 gene, read-out: Mean IC50 α4β1 KO^b

Chain of α4β7 integrin (P13612 34-1032): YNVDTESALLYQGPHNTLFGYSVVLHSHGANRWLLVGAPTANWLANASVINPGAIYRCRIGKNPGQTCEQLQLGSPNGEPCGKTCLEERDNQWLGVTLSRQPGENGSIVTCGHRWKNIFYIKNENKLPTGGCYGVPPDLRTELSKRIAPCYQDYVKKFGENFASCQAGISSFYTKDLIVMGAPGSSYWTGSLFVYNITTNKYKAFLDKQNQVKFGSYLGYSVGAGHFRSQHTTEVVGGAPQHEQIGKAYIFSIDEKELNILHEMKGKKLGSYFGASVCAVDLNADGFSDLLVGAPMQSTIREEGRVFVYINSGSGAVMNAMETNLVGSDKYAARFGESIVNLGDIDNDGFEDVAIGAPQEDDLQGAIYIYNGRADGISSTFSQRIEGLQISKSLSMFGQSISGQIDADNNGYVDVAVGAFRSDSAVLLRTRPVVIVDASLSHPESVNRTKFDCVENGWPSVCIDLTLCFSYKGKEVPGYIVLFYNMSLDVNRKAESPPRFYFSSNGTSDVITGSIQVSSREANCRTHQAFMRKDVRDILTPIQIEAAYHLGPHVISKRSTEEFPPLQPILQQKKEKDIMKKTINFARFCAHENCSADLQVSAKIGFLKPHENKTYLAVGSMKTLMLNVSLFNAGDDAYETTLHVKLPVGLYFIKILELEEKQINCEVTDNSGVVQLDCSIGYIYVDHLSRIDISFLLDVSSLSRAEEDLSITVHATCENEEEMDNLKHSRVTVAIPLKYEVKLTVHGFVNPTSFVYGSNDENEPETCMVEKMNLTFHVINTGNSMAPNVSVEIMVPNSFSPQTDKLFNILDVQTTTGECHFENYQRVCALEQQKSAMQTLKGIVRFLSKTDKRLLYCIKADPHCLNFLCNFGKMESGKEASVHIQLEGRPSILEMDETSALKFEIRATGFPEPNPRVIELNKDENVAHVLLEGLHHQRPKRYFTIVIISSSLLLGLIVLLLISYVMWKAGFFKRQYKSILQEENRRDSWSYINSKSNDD
Chain of α4β7 integrin (P26010 20-798): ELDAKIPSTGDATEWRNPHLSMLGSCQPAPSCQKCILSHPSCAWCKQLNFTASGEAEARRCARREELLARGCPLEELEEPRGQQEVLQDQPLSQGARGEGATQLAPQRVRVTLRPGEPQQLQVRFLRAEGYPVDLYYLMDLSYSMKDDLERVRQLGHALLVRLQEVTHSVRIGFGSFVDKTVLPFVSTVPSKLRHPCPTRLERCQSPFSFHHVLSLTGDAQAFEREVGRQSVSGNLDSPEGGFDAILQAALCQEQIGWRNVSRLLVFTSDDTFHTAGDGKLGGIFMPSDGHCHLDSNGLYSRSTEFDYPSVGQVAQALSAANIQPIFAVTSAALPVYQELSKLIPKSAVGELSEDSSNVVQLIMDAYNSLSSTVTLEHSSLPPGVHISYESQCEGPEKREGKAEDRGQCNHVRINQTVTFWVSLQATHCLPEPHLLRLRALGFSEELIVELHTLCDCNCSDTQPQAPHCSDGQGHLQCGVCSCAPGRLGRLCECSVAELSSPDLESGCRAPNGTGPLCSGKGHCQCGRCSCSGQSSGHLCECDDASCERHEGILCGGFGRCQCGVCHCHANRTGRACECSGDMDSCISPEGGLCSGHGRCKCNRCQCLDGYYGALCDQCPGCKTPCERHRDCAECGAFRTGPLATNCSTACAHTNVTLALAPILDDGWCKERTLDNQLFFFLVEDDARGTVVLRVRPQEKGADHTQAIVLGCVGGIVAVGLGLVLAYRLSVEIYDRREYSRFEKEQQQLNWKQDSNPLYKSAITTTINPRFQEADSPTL
Chain of α4β1 integrin (P13612 34-1032): as the sequence (P13612 34-1032) above
Chain of α4β1 integrin (P05556 21-798): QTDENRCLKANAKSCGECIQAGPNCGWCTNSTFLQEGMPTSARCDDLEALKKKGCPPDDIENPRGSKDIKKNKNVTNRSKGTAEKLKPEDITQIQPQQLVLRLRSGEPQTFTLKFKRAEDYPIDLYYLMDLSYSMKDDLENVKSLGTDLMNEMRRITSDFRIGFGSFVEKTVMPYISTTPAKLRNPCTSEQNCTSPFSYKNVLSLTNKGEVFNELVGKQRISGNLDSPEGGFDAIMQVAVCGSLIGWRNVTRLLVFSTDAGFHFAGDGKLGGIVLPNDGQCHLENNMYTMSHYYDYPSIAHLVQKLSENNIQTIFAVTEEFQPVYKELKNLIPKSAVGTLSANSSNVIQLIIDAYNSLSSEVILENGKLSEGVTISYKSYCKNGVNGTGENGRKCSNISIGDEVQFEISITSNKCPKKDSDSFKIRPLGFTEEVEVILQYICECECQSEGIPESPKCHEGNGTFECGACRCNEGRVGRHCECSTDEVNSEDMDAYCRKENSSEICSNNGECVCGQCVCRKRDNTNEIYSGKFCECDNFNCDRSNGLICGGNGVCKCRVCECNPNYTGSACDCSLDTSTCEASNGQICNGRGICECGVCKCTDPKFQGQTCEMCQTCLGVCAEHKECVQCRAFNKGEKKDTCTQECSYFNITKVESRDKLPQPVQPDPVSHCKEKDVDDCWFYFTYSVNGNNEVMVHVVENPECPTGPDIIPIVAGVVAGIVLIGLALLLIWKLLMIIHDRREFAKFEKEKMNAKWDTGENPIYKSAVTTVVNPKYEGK

SMILES | IC50 (α4β7 integrin; [1]) [nM] | IC50 (α4β1 integrin; [2]) [nM] | IC50 (α4β7 integrin; [3]) [nM] | IC50 (α4β1 integrin; [4]) [nM]
Cc1c(CCN2CCC(F)(F)CC2)ccnc1-c1cccc2c(C[C@H](NC(=O)C3(C(F)(F)F)CCN(CC(F)(F)F)CC3)C(=O)O)cccc12 [Compound 716] | < 10 | > 1000 | – | –
O=C(O)[C@H](Cc1cccc2c(-c3ncc(CN4CCN(C5CC5)CC4)c4ccccc34)cccc12)NC(=O)C1(C(F)(F)F)CCN(CC(F)F)CC1 [Compound 901] | < 10 | 100 to 1000 | – | –
COc1ccc(CN(C)C)c(OC)c1-c1cccc2c(C[C@H](NC(=O)c3c(F)ccc(F)c3C)C(=O)O)cccc12 [Compound 589] | – | – | < 10 | > 1000
COc1ccc(CN2CCC3(CCCCC3)CC2)c(OC)c1-c1cccc2c(C[C@H](NC(=O)C3(C(F)(F)F)CCN(CC(F)(F)F)CC3)C(=O)O)cccc12 [Compound 813] | < 10 | > 1000 | – | –
COc1ccc(CN2CCCC(F)(F)C2)c(OC)c1-c1cccc2c(C[C@H](NC(=O)C3(C(F)(F)F)CCN(CC(F)(F)F)CC3)C(=O)O)cccc12 [Compound 825] | 10 to 100 | > 1000 | – | –
Cn1c(=O)c(-c2cccc3c(C[C@H](NC(=O)C4(C)CCCN(C5COC5)CC4)C(=O)O)cccc23)c(C(F)(F)F)c2ccccc21 (some centres unmarked) [Compound 1050] | 10 to 100 | > 1000 | – | –
CN(C)Cc1cc(-c2cccc3c(C[C@H](NC(=O)C4(C(F)(F)F)CCN(CC(F)(F)F)CC4)C(=O)O)cccc23)c2cnccc2c1 [Compound 618] | – | – | 10 to 100 | > 1000
CCc1cccc(F)c1C(=O)N[C@@H](Cc1cccc2c(-c3c(CN4CCCCC4)cccc3OC)cccc12)C(=O)O [Compound 546] | – | – | < 10 | 100 to 1000
COc1ccc(CN2CCC(F)CC2)c(C(F)(F)F)c1-c1cccc2c(C[C@H](NC(=O)C3(C(F)(F)F)CCN(CC(F)(F)F)CC3)C(=O)O)cccc12 [Compound 821] | 10 to 100 | > 1000 | – | –
COc1cccc(CCN2CCCCC2)c1-c1cccc2c(C[C@H](NC(=O)C3(C(F)(F)F)CCN(CC(F)(F)F)CC3)C(=O)O)cccc12 [Compound 956] | < 10 | 100 to 1000 | – | –
COc1ccc(CN2CCC(F)(F)CC2)c(OC)c1-c1cccc2c(C[C@H](NC(=O)c3c(C)ccnc3F)C(=O)O)cccc12 [Compound 606] | – | – | 10 to 100 | > 1000
CCOCc1cc(OC)c(-c2cccc3c(C[C@H](NC(=O)C4(C(F)(F)F)CCN(CC(F)(F)F)CC4)C(=O)O)cccc23)c(OC)c1 [Compound 430] | – | – | < 10 | 100 to 1000
CC1CCN(Cc2cnc(-c3cccc4c(C[C@H](NC(=O)C5(C(F)(F)F)CCN(CC(F)(F)F)CC5)C(=O)O)cccc34)c3ccccc23)CCC1(F)F (some centres unmarked) [Compound 875] | 10 to 100 | > 1000 | – | –
COc1cc(CN2CCCCC2)cnc1-c1cccc2c(C[C@H](NC(=O)C3(C(F)(F)F)CCN(CC(F)(F)F)CC3)C(=O)O)cccc12 [Compound 800] | < 10 | > 1000 | – | –
CC1CCN(Cc2cnc(-c3cccc4c(C[C@H](NC(=O)C5(C(F)(F)F)CCN(CC(F)F)CC5)C(=O)O)cccc34)c3ccccc23)CCC1(F)F (some centres unmarked) [Compound 926] | < 10 | > 1000 | – | –
COc1ccc(CN2CCCC2)c(OC)c1-c1cccc2c(C[C@H](NC(=O)C3(C(F)(F)F)CCN(CC(F)(F)F)CC3)C(=O)O)cccc12 [Compound 782] | < 10 | 100 to 1000 | – | –
O=C(O)[C@H](Cc1cccc2c(-c3ncc(C(=O)N4CCN(C5CC5)CC4)c4ccccc34)cccc12)NC(=O)C1(C(F)(F)F)CCN(CC(F)F)CC1 [Compound 763] | 10 to 100 | > 1000 | – | –
O=C(O)[C@H](Cc1cccc2c(-c3ncccc3CN3CCCCC3)cccc12)NC(=O)C1(C(F)(F)F)CCN(CC(F)(F)F)CC1 [Compound 793] | 10 to 100 | > 1000 | – | –
COc1cccc(CCN2CCCC(C)(C)C2)c1-c1cccc2c(C[C@H](NC(=O)C3(C(F)(F)F)CCN(CC(F)(F)F)CC3)C(=O)O)cccc12 [Compound 961] | < 10 | 100 to 1000 | – | –
O=C(O)[C@H](Cc1cccc2c(-c3ncc(CN4CCC4)c4ccccc34)cccc12)NC(=O)C1(C(F)(F)F)CCN(CC(F)(F)F)CC1 [Compound 919] | < 10 | > 1000 | – | –
COc1ccc(CN2CCC(F)(F)CC2)c(OC)c1-c1cccc2c(C[C@H](NC(=O)c3c(C)cncc3F)C(=O)O)cccc12 [Compound 604] | – | – | < 10 | > 1000
COc1cc(C(F)(F)F)c(CN2CCCCC2)cc1-c1cccc2c(C[C@H](NC(=O)c3c(C)cccc3F)C(=O)O)cccc12 [Compound 1025] | 10 to 100 | > 1000 | – | –
